Measurements as given in PubChem BioAssay (NCI).
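96-well plates; 48 h exposure; 5 concentrations. Endpoints by linear interpolation between flanking doses. Not reached: highest tested concentration assigned. Abbreviation: GI50, concentration required for 50% inhibition of growth. TGI denotes the concentration required for complete inhibition of growth.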

Assays:
Assay in all cases: NCI tumour cell line growth inhibition, 48 h
[1] = tested on: A498 renal
[2] = tested on: CAKI-1 renal
[3] = tested on: DU-145 prostate
[4] = tested on: K-562 leukemia
[5] = tested on: KM12 colon
[6] = tested on: RPMI-8226 leukemia
[7] = tested on: RXF 393 renal
[8] = tested on: SNB-19 CNS

SMILES: Nc1nc(N(Cc2ccccc2)c2ccccc2)c2cn[nH]c2n1
- GI50 [1]: 3.03 µM
- TGI [1]: 9.23 µM
- GI50 [2]: 3.67 µM
- TGI [2]: > 100 µM
- GI50 [3]: 4.57 µM
- TGI [3]: > 100 µM
- GI50 [4]: 2.49 µM
- TGI [4]: > 100 µM
- GI50 [5]: 3.23 µM
- TGI [5]: > 100 µM
- GI50 [6]: 1.68 µM
- TGI [6]: > 100 µM
- GI50 [7]: 2.93 µM
- TGI [7]: 22 µM
- GI50 [8]: > 100 µM
- TGI [8]: > 100 µM

SMILES: O=C1CCC(N2C(=O)c3ccccc3C2=O)C(=O)N1CO (configuration not stated)
- GI50 [1]: > 100 µM
- TGI [1]: > 100 µM
- GI50 [2]: 94.7 µM
- TGI [2]: > 100 µM
- GI50 [3]: 25 µM
- TGI [3]: 79.6 µM
- GI50 [4]: > 100 µM
- TGI [4]: > 100 µM
- GI50 [5]: > 100 µM
- TGI [5]: > 100 µM
- GI50 [6]: 25.1 µM
- TGI [6]: 78.7 µM
- GI50 [7]: 43 µM
- TGI [7]: > 100 µM
- GI50 [8]: > 100 µM
- TGI [8]: > 100 µM

SMILES: CC[C@@]1(c2ccccc2)C2=C(CC(C)(C)CC2=O)Nc2[nH]ncc21
- GI50 [1]: 16.7 µM
- TGI [1]: 56.3 µM
- GI50 [2]: 51.9 µM
- TGI [2]: > 100 µM
- GI50 [3]: > 100 µM
- TGI [3]: > 100 µM
- GI50 [4]: > 100 µM
- TGI [4]: > 100 µM
- GI50 [5]: > 100 µM
- TGI [5]: > 100 µM
- GI50 [6]: > 100 µM
- TGI [6]: > 100 µM
- GI50 [7]: > 100 µM
- TGI [7]: > 100 µM
- GI50 [8]: > 100 µM
- TGI [8]: > 100 µM

SMILES: COc1cc2ncn(-c3cc(OCc4cccs4)c(C(N)=O)s3)c2cc1OC
- GI50 [1]: 1.25 µM
- TGI [1]: 16.9 µM
- GI50 [2]: 8.49 µM
- TGI [2]: > 25 µM
- GI50 [3]: 0.935 µM
- TGI [3]: > 8.22 µM
- GI50 [4]: 1.14 µM
- TGI [4]: > 25 µM
- GI50 [5]: 0.772 µM
- TGI [5]: > 17.5 µM
- GI50 [6]: 3.24 µM
- TGI [6]: > 25 µM
- GI50 [7]: 1.31 µM
- TGI [7]: > 15.7 µM
- GI50 [8]: 3.25 µM
- TGI [8]: > 25 µM

SMILES: CCOCC(=O)N[C@H]1CCc2cc(OC)c(OC)c(OC)c2-c2ccc(OC)c(=O)cc21
- TGI [1]: 8.87 µM
- TGI [2]: 30.1 µM
- TGI [3]: 0.107 µM
- TGI [4]: > 100 µM
- TGI [5]: 0.0334 µM
- TGI [6]: > 100 µM
- TGI [7]: > 100 µM
- TGI [8]: > 100 µM

SMILES: O=C1Nc2ccccc2C1(c1ccc(O)cc1)c1ccc(O)cc1
- GI50 [1]: 17.8 µM
- TGI [1]: 47.1 µM
- GI50 [2]: 22.7 µM
- TGI [2]: 81.3 µM
- GI50 [3]: 21 µM
- TGI [3]: 54.3 µM
- GI50 [4]: 29.2 µM
- TGI [4]: > 100 µM
- GI50 [5]: 12.1 µM
- TGI [5]: 28.4 µM
- GI50 [6]: 25.8 µM
- TGI [6]: 70.9 µM
- GI50 [7]: 0.445 µM
- TGI [7]: 13.4 µM
- GI50 [8]: 34.3 µM
- TGI [8]: > 97 µM

SMILES: COc1cc(C(=O)CBr)c(OC)cc1C
- TGI [1]: > 100 µM
- TGI [2]: > 100 µM
- TGI [3]: > 100 µM
- TGI [4]: > 100 µM
- TGI [5]: > 100 µM
- TGI [6]: > 100 µM
- TGI [7]: > 100 µM
- TGI [8]: > 100 µM

SMILES: O=C(Nc1ccncc1)C(=O)c1cn(S(=O)(=O)c2cccc(F)c2)c2ccccc12
- GI50 [1]: 13.4 µM
- TGI [1]: 97 µM
- GI50 [2]: 3.16 µM
- TGI [2]: > 100 µM
- GI50 [3]: 6.2 µM
- TGI [3]: > 100 µM
- GI50 [4]: 1.65 µM
- TGI [4]: > 100 µM
- GI50 [5]: 3.04 µM
- TGI [5]: > 100 µM
- GI50 [6]: 1.58 µM
- TGI [6]: > 100 µM
- GI50 [7]: 8.88 µM
- TGI [7]: 66.8 µM
- GI50 [8]: 49.2 µM
- TGI [8]: > 100 µM
